According to paper PMC9246773, “Assessing the Activity of Antimicrobial Peptides Against Common Marine Bacteria Located in Rotifer (Brachionus plicatilis) Cultures” (Probiotics and Antimicrobial Proteins, 2022):
No end group written: not given here.

Experiments:
Vibrio harveyi [1] = format: cell-based; settings: 48 h
Procedure: (§1) A range of bacterial species with the potential to be transferred to developing fish larvae as pathogens or probiotics were selected for use in the study (Table 2). Bacterial isolates were stored at −80 °C and thawed, and 25 µL of the isolates was spread onto marine salt agar (MSA) media. All isolates were incubated at 25 °C for 18 h to reach mid-log growth phase. All isolates were sub-cultured and identified using mass spectrometry (MALDI-TOF) using the BioTyper and MBT 8468 library (Bruker Pty Ltd). The isolate Tenacibaculum discolor was plated on Anacker and Oradal’s marine (AOM) media, incubated for 48 h and identified using the aforementioned method. Bacterial isolates were suspended in sterile saline (0.75% NaCl w/v) to 0.5 McFarland standard. […] The bacterial isolates T. discolor and Pseudoalteromonas sp. require marine salts to grow and were not added to MHB (0‰). The isolate T. discolor requires low nutrients to grow, therefore, a separate MHB (25‰) was prepared at a diluted ratio of 1 part MHB and 7 parts artificial seawater (25‰).
(§2) The protocol was followed to determine the minimum inhibitory concentration (MIC) of the selected peptides. Two MIC assays were performed, firstly to determine whether each peptide precipitated in MHB and thereby required acetic acid adjustments (supplementary materials) and secondly, to determine the antimicrobial activity of each peptide in artificial seawater (25‰). Peptide stock solutions (1.3 mg mL^−1) were made by diluting the peptides in sterile deionised water. MHB was made with deionised water to reach a concentration of approaching 0‰ and artificial sea salts (Sigma-Aldrich® S9883) to reach a salinity of 25‰.
(§3) Once the acetic acid requirement for each peptide was determined (Table 3), the antimicrobial activity of each peptide was tested at a salinity of 0‰ and 25‰ for all bacterial isolates. A stock solution for peptides that required acetic acid was prepared by a 1:2 dilution in acetic acid (0.02% acetic acid w/v, containing 0.4% BSA) solution. In a 96-well polypropylene microtitre plates (Costar® 3879), 100 µL of this peptide stock was added to the first well for each bacterial isolate tested and serially diluted twofold with acetic acid (0.01% acetic acid w/v, containing 0.2% BSA). From each well, 10 µL of each peptide concentration was added to the corresponding wells of a new 96-well microtitre plate. From each of the bacterial suspensions (0‰), 90 µL was added to each well. […] Twofold serial dilutions were made with MHB (0‰). From each of the bacterial suspensions (0‰), 50 µL was added to each well. The same method was followed for testing peptides in MHB at 25‰. All peptide concentrations ranged from 0.125 to 65 µg mL^−1, and the bacterial suspension in each well was approximately 5 × 10^5 CFU mL^−1. The different salinities were used to compare any differences in antimicrobial activity in 0‰ and 25‰ water. […] Each bacterium was trialled in duplicate.

bacterial isolates [2] = format: cell-based; settings: 48 h
Procedure: as §1, §2, §3

Shewanella sp. [3] = format: cell-based; settings: 48 h
Procedure: as §1, §2, §3

Tenacibaculum discolor = format: cell-based; settings: 48 h
Procedure: as §1, §2, §3

Vibrio rotiferianus [4] = format: cell-based; settings: 48 h
Procedure: as §1, §2, §3

Vibrio alginolyticus [5] = format: cell-based; settings: 48 h
Procedure: as §1, §2, §3

Pseudoalteromonas sp. = format: cell-based; settings: 48 h
Procedure: as §1, §2, §3

Vibrio scophthalmi [6] = format: cell-based; settings: 48 h
Procedure: as §1, §2, §3

[7] = tested on: Vibrio harveyi (ATCC 35084); format: cell-based; settings: ATCC 35084, 48 h
Procedure: as §1, §2, §3

[8] = tested on: Escherichia coli (ATCC 25922); format: cell-based; settings: ATCC 25922, 48 h
Procedure: as §1, §2, §3

bacterial isolates [9] = format: cell-based; settings: for MIC against the probiotic strains, low salt: 18 h
Procedure: as §1, §2
Once the acetic acid requirement for each peptide was determined (Table 3), the antimicrobial activity of each peptide was tested at a salinity of 0‰ and 25‰ for all bacterial isolates. A stock solution for peptides that required acetic acid was prepared by a 1:2 dilution in acetic acid (0.02% acetic acid w/v, containing 0.4% BSA) solution. In a 96-well polypropylene microtitre plates (Costar® 3879), 100 µL of this peptide stock was added to the first well for each bacterial isolate tested and serially diluted twofold with acetic acid (0.01% acetic acid w/v, containing 0.2% BSA). From each well, 10 µL of each peptide concentration was added to the corresponding wells of a new 96-well microtitre plate. From each of the bacterial suspensions (0‰), 90 µL was added to each well. […] Twofold serial dilutions were made with MHB (0‰). From each of the bacterial suspensions (0‰), 50 µL was added to each well. The same method was followed for testing peptides in MHB at 25‰. All peptide concentrations ranged from 0.125 to 65 µg mL^−1, and the bacterial suspension in each well was approximately 5 × 10^5 CFU mL^−1. […]

Vibrio harveyi [10] = format: cell-based; settings: 48 h; remark: listed apart in the source
Procedure: as §1, §2
(§4) A broth microdilution protocol was followed to test whether the AMPs precipitated in MHB. The isolates T. discolor and Pseudoalteromonas were excluded from this assay because they required marine salts for growth. The peptides HHC10 and HHC36 previously required acetic acid adjustments according to [63] and were not trialled in this assay. To test if peptides required acetic acid, each peptide was diluted 1:2 in acetic acid (0.02% acetic acid w/v, containing 0.4% BSA) solution. In a 96-well polypropylene microtitre plates (Costar® 3879), 100 µL of this peptide stock was added to the first well for each bacterial isolate tested and serially diluted 2-fold with acetic acid (0.01% acetic acid w/v, containing 0.2% BSA). From each well, 10 µL of each peptide concentration was added to the corresponding wells of a new 96-well microtitre plate. From each of the bacterial suspensions in MHB (0‰), 90 µL was added to each well. […] From each of the bacterial suspensions in MHB (0‰), 50 µL was added to each well. All peptide concentrations ranged from 0.125 - 65µg mL^-1 and the bacterial suspension in each well was approximately 5 × 10^5 CFU mL^-1. Antimicrobial peptides that have an MIC value two or more dilutions higher in the assay with no acetic acid, compared to the assay with acetic acid, require acetic acid adjustments. The 96-well plates were incubated at 25 °C and read at 24 and 48 hours. The MIC was visually determined using a Sensititre™ Vizion™ Digital MIC Viewing System (Thermo Scientific™), and the lowest AMP concentration that had no bacterial growth was recorded as the MIC after 48 hours. Each bacterium was trialled in duplicate.

Shewanella sp. [11] = format: cell-based; settings: 48 h; remark: listed apart in the source
Procedure: as §1, §2, §4

Vibrio rotiferianus [12] = format: cell-based; settings: 48 h; remark: listed apart in the source
Procedure: as §1, §2, §4

Vibrio alginolyticus [13] = format: cell-based; settings: 48 h; remark: listed apart in the source
Procedure: as §1, §2, §4

Vibrio scophthalmi [14] = format: cell-based; settings: 48 h; remark: listed apart in the source
Procedure: as §1, §2, §4

[15] = tested on: Vibrio harveyi (ATCC 35084); format: cell-based; settings: ATCC 35084, 48 h; remark: listed apart in the source
Procedure: as §1, §2, §4

[16] = tested on: Escherichia coli (ATCC 25922); format: cell-based; settings: ATCC 25922, 48 h; remark: listed apart in the source
Procedure: as §1, §2, §4

[17] = cited from earlier work
From the text: A study by Haney determined the aggregation properties of the innate defence regulator (IDR) peptides 1018, 1002 and HH2 in different media such as salts and serum. These IDR peptides are synthetic analogues to natural host defence peptides (HDPs) found in organisms. […] Second-generation peptides are synthetically rearranged IDRs that are created to combat unwa ...

Row | Substance | MIC V. harveyi, salinity 0‰ (Vibrio harveyi [1]) [µg/mL] | MIC V. harveyi, salinity 25‰ (Vibrio harveyi [1]) [µg/mL] | MIC Shewanella sp., salinity 0‰ (Shewanella sp. [3]) [µg/mL] | MIC Shewanella sp., salinity 25‰ (Shewanella sp. [3]) [µg/mL] | MIC T. discolor, salinity 25‰ (Tenacibaculum discolor) [µg/mL] | MIC V. rotiferianus, salinity 0‰ (Vibrio rotiferianus [4]) [µg/mL] | MIC V. rotiferianus, salinity 25‰ (Vibrio rotiferianus [4]) [µg/mL] | MIC V. alginolyticus, salinity 0‰ (Vibrio alginolyticus [5]) [µg/mL] | MIC V. alginolyticus, salinity 25‰ (Vibrio alginolyticus [5]) [µg/mL] | MIC Pseudoalteromonas sp., salinity 25‰ (Pseudoalteromonas sp.) [µg/mL] | MIC V. scophthalmi, salinity 0‰ (Vibrio scophthalmi [6]) [µg/mL] | MIC V. scophthalmi, salinity 25‰ (Vibrio scophthalmi [6]) [µg/mL] | MIC V. harveyi ATCC 35084, salinity 0‰ [7] [µg/mL] | MIC V. harveyi ATCC 35084, salinity 25‰ [7] [µg/mL] | MIC E. coli ATCC 25922, salinity 0‰ [8] [µg/mL] | MIC E. coli ATCC 25922, salinity 25‰ [8] [µg/mL] | MIC V. harveyi, Acetic (Vibrio harveyi [10]) [µg/mL] | MIC V. harveyi, No acetic (Vibrio harveyi [10]) [µg/mL] | MIC Shewanella sp., Acetic (Shewanella sp. [11]) [µg/mL] | MIC Shewanella sp., No acetic (Shewanella sp. [11]) [µg/mL] | other results
1 | KRWWKWIRW-NH2 [HHC10] | 8.13 | > 65 | 4.06 | > 65 | > 65 | 2.03 | > 65 | 2.03 | > 65 | > 65 | 2.03 | > 65 | 4.06 | > 65 | 4.06 | > 65 |  |  |  |  | MIC in artificial seawater (25‰) (over the bacterial isolates) (bacterial isolates [2]): > 65 µg/mL; MIC in low salt conditions (over the bacterial isolates) (bacterial isolates [9]; 48 h): 1 to 10 µg/mL
2 | KWRLLIRWRIQK [Peptide 2009] | 1.02 | > 65 | 0.51 | > 65 | > 65 | 0.13 | 32.5 | 1.02 | 65 | > 65 | < 0.13 | 32.5 | 1.02 | > 65 | 2.03 | > 65 | 1.02 | 1.02 | 0.25 | 1.02 | MIC V. rotiferianus, Acetic (Vibrio rotiferianus [12]): 0.13 µg/mL; MIC V. rotiferianus, No acetic (Vibrio rotiferianus [12]): 1.02 µg/mL; MIC V. alginolyticus, Acetic (Vibrio alginolyticus [13]): 1.02 µg/mL; MIC V. alginolyticus, No acetic (Vibrio alginolyticus [13]): 1.02 µg/mL; MIC V. scophthalmi, Acetic (Vibrio scophthalmi [14]): 0.13 µg/mL; MIC V. scophthalmi, No acetic (Vibrio scophthalmi [14]): 0.51 µg/mL; MIC V. harveyi ATCC 35084, Acetic [15]: 1.02 µg/mL; MIC V. harveyi ATCC 35084, No acetic [15]: 1.02 µg/mL; MIC E. coli ATCC 25922, Acetic [16]: 2.03 µg/mL; MIC E. coli ATCC 25922, No acetic [16]: 2.03 µg/mL; cytotoxicity [17]: caused cytotoxicity; MIC against the probiotic strains, low salt (bacterial isolates [9]): 0.13 to 0.25 µg/mL
3 | RRWIVKVRIRRR-NH2 [Peptide 2008] | 1.02 | > 65 | 0.51 | 65 | > 65 | 0.25 | 65 | 0.13 | 65 | 65 | 0.25 | 65 | 1.02 | > 65 | 4.06 | > 65 | 1.02 | 1.02 | 0.13 | 0.51 | MIC V. rotiferianus, Acetic (Vibrio rotiferianus [12]): 0.25 µg/mL; MIC V. rotiferianus, No acetic (Vibrio rotiferianus [12]): 1.02 µg/mL; MIC V. alginolyticus, Acetic (Vibrio alginolyticus [13]): 0.51 µg/mL; MIC V. alginolyticus, No acetic (Vibrio alginolyticus [13]): 1.02 µg/mL; MIC V. scophthalmi, Acetic (Vibrio scophthalmi [14]): 0.13 µg/mL; MIC V. scophthalmi, No acetic (Vibrio scophthalmi [14]): 0.25 µg/mL; MIC V. harveyi ATCC 35084, Acetic [15]: 1.02 µg/mL; MIC V. harveyi ATCC 35084, No acetic [15]: 1.02 µg/mL; MIC E. coli ATCC 25922, Acetic [16]: 2.03 µg/mL; MIC E. coli ATCC 25922, No acetic [16]: 4.06 µg/mL; cytotoxicity [17]: caused cytotoxicity; MIC against the probiotic strains, low salt (bacterial isolates [9]): 0.13 to 0.25 µg/mL
